The values that follow come from publication PMC11324046, “Second-generation piperazine derivatives as promising radiation countermeasures” (RSC Medicinal Chemistry, 2024).

SMILES strings stand for the structures.

Data set [1] is described as follows: WST-1 proliferation assay, A549. The settings on record: human, A549 cells (lung carcinoma), vs 0.1% DMSO control = 100%, mean ± standard deviation. Type of data set: cell-based. The procedure: A thorough analysis of antiproliferative activity was performed across various cell culture types representing different histotypes: leukemia (Jurkat, MOLT-4), lung adenocarcinoma (A549), colorectal adenocarcinoma (HT-29), pancreatic carcinoma (PANC-1), breast adenocarcinoma (MCF-7), osteosarcoma (SAOS-2), and one non-cancerous cell line (fetal lung fibroblasts MRC-5). The cell lines were exposed to the newly synthesized compounds at a concentration of 100 μM for 48 h in a single-dose treatment. Changes in cell proliferation compared to the vehicle 0.1% dimethyl sulfoxide (DMSO) control were determined using the WST-1 assay, which is based on mitochondrial dehydrogenase metabolic activities. […] The overall cytotoxic activity of each compound was expressed as growth percent (GP) – the mean of the proliferation of all cell lines treated with the same compound.
Selected human tumor and non-tumor cell lines Jurkat (acute T-cell leukemia), MOLT-4 (acute lymphoblastic leukemia), A549 (lung carcinoma), HT-29 (colorectal adenocarcinoma), PANC-1 (pancreas epithelioid carcinoma), MCF-7 (breast adenocarcinoma), SAOS-2 (osteosarcoma) and MRC-5 (normal lung fibroblasts) were purchased from either American Type Culture Collection (ATCC; VA, USA) or Sigma-Aldrich (St. Louis, MO, USA) and cultured according to the provider's culture method guidelines. All cell lines were maintained at 37 °C in a humidified 5% carbon dioxide and 95% air incubator. Cells in the maximum range of either 10 passages for the adherent cell lines (A549, HT-29, PANC-1, MCF-7, SAOS-2, and MRC-5), or 20 passages for suspension cell lines (Jurkat, MOLT-4,) and in an exponential growth phase were used for this study. Screening of the antiproliferative effect and growth percent calculation were conducted as follows: each cell line was seeded at previously established optimal density (1–50 × 10^3 cells per well) in a 96-well plate (TPP, Trasadingen, Switzerland) and cells were allowed to settle overnight. Cells were treated for 48 h with compounds at a final concentration of 100 μM. At the end of the cultivation period, the WST-1 proliferation assay (Roche, Basel, Switzerland) was performed according to the manufacturer's protocol. The absorbance was measured at 440 nm using a Tecan Spark multimode microplate reader (Tecan, Mannedorf, Switzerland). Each value is the mean of three independent experiments and represents the percentage of proliferation (100% cell proliferation for 0.1% DMSO mock-treated control cells). The GP value was calculated for each compound tested. GP represents the mean of the percentage proliferation decrease of all cell lines treated with the same compound.
For orientation: Tetrazolium assays rely on reduction of a dye to a coloured formazan, in cell work by metabolically active cells.

A further data set in a line: in vitro. To be noted: male, human. As for the experimental part: (§1) To represent the overall inhibitory activity of each compound, viability was calculated as the mean of at least three independent measurements. The purpose was to determine the optimal non-toxic concentration for subsequent use in radioprotection tests.
(§2) Whole blood from a healthy donor was diluted 1 : 1 with Dulbecco's phosphate buffered saline (Sigma-Aldrich, St. Louis, MO, USA). The diluted blood was slowly and carefully pipetted onto an equal volume of Histopaque®-1077 (Sigma-Aldrich, St. Louis, MO, USA). The entire process was carried out at room temperature. Subsequently, centrifugation was performed at 700 × g with the slowest acceleration and deceleration for 20 min at 20 °C. The resulting PBMCs ring was aspirated and centrifuged at 450 × g for 10 min at 20 °C with normal acceleration and deceleration. The cells were washed twice with RPMI 1640 medium with GlutaMAX (Gibco by Thermo Fisher Scientific, Waltham, MA, USA). After the second wash and centrifugation, the cells were diluted with cultivation medium RPMI 1640 with GlutaMAX supplemented with 20% inactivated fetal bovine serum (both Gibco by Thermo Fisher Scientific, Waltham, MA, USA) and 1% antibiotic solution of penicillin, 10 000 IU ml^−1 and streptomycin, 10 mg ml^−1 (Sigma-Aldrich, St. Louis, MO, USA). At the end, the cells were counted using Türk's solution.
(§3) PBMCs were plated into 96-well plates at a cell density of approximately 5 × 10^4 cells per well in a volume of 100 μl. Cells were treated with tested compounds in concentrations of 10, 20, 50, 100, 200, 500, and 1000 μM to determine the optimal non-toxic concentration for each. Cells were incubated for 48 h in a humidified atmosphere with 5% CO2 at 37 °C. 20 μl of MTS – CellTiter 96® AQueous One Solution Cell Proliferation Assay (Promega, Madison, WI, USA) was added to each well 4 h before spectrometric analysis. Cell viability was then determined by measuring absorbance at 490 nm using the Synergy H1 instrument by BioTek. The absorbance of the cell-free culture medium was used as a blank and subtracted from the absorbance readings obtained during the experiment. The viability of untreated control cells was set as 100%.

Another data set deals with PBMCs. Put plainly: in vitro. The settings on record: 48 h. As for the experimental part: as §1, §2, §3
The nature of data set [2]: Annexin V/PI flow cytometry viability of irradiated MOLT-4 cells. To be noted: human, MOLT-4 cells, not irradiated, no irradiation, 24 h, read-out: Viable (annexin V/PI negative) MOLT-4 cells, compound alone; for viability at 24 h, 200 µM: representative histogram Fig. 6A. Type of data set: cell-based, human. The procedure:
Consequently, we investigated whether the pre-application of these substances can augment the survival of MOLT-4 cells after irradiation exposure. The radioprotective investigation utilized a leukemia MOLT-4 cell model of hematopoietic origin with flow cytometric quantification of cell viability via annexin V/propidium iodide staining.
In the following step, at 24 h after irradiation, MOLT-4 cell viability and cell death were determined by flow cytometry using an Alexa Fluor® 488 annexin V/Dead Cell Apoptosis kit (Life Technologies, Grand Island, NY, USA) following the manufacturer's instructions. The Alexa Fluor®488 annexin V/Dead Cell Apoptosis kit employs the property of Alexa Fluor®488 conjugated to annexin V to bind to phosphatidylserine in the presence of Ca^2+; and the ability of propidium iodide to enter cells with damaged cell membranes and bind to DNA. For each sample, a minimum of 20 000 events were acquired using a CytoFLEX LX flow cytometer (Beckman Coulter, Miami, FL, USA). List mode data were analyzed using Kaluza Analysis 2.1 software (Beckman Coulter, Miami, FL, USA).
(Flow cytometry measures light scatter and fluorescence of single cells or particles in a stream.)

The mark [3] stands for this setting: 100 μM, representative histogram Fig. 5A.
The mark [4] stands for this setting: peripheral blood mononuclear cells (PBMCs).

For `COc1cc([N+](=O)[O-])ccc1OCC(O)CN1CCN(CCO)CC1` (centres unmarked) [Compound 1, 1-(4-(2-Hydroxyethyl)piperazin-1-yl)-3-(2-methoxy-4-nitrophenoxy)propan-2-ol], the viability at 48 h, 100 µM in data set [1] came to 112 ± 8%. Moreover, in the data set “in vitro”, the viability at 48 h, 10 µM is 114 ± 14%; the viability at 48 h, 20 µM turned out to be 110 ± 11%; the viability at 48 h, 50 µM turned out to be 111 ± 15%; the viability at 48 h, 100 µM was 101 ± 17%. In the data set “in vitro”, the viability at 48 h, 200 µM came to 102 ± 21%; the viability at 48 h, 500 µM worked out at 97 ± 22%; the viability at 48 h, 1000 µM worked out at 60 ± 10%. Besides, the “Optimal non-toxic concentration (PBMC viability not below 100% at 0.05 significance level and higher than 90%)” value in the data set with PBMCs (male, human) was determined as 500 µM.

As for `COc1ccc(OCC(O)CN2CCN(CCO)CC2)c([N+](=O)[O-])c1` (centres unmarked) [Compound 2, 1-(4-(2-Hydroxyethyl)piperazin-1-yl)-3-(4-methoxy-2-nitrophenoxy)propan-2-ol], the viability at 48 h, 100 µM in data set [1] amounted to 111 ± 11%. In “in vitro”, the viability at 48 h, 10 µM amounted to 102 ± 12%; the viability at 48 h, 20 µM came to 100 ± 11%; the viability at 48 h, 50 µM came out at 99 ± 6%; the viability at 48 h, 100 µM worked out at 98 ± 8%. Besides, in the data set “in vitro”, the viability at 48 h, 200 µM is 99 ± 11%; the viability at 48 h, 500 µM is 93 ± 3%; the viability at 48 h, 1000 µM was 78 ± 4%. Also, in the data set with PBMCs (male, human), the “Optimal non-toxic concentration (PBMC viability not below 100% at 0.05 significance level and higher than 90%)” value is 500 µM.

On to `O=[N+]([O-])c1ccc(OCC(O)CN2CCN(CCO)CC2)c(F)c1` (centres unmarked) [Compound 3, 1-(4-(2-Hydroxyethyl)piperazin-1-yl)-3-(2-fluoro-4-nitrophenoxy)propan-2-ol], for which, in data set [1], the viability at 48 h, 100 µM was 106 ± 11%. Further, in “in vitro”, the viability at 48 h, 10 µM is 98 ± 5%; the viability at 48 h, 20 µM amounted to 95 ± 14%; the viability at 48 h, 50 µM amounted to 90 ± 9%; the viability at 48 h, 100 µM was found to be 92 ± 6%. For the same compound, in the data set “in vitro”, the viability at 48 h, 200 µM was 92 ± 5%; the viability at 48 h, 500 µM came out at 92 ± 9%; the viability at 48 h, 1000 µM came to 81 ± 11%. For the same compound, in the data set with PBMCs (male, human), the “Optimal non-toxic concentration (PBMC viability not below 100% at 0.05 significance level and higher than 90%)” value came out at 500 µM.

As to `OCCN1CCN(CC(O)COc2ccc(F)cc2)CC1` (centres unmarked) [Compound 4, 1-(4-(2-Hydroxyethyl)piperazin-1-yl)-3-(4-fluorophenoxy)propan-2-ol], in data set [1], the viability at 48 h, 100 µM stood at 112 ± 14%. For the same compound, in the data set “in vitro”, the viability at 48 h, 10 µM was 104 ± 18%; the viability at 48 h, 20 µM worked out at 103 ± 26%; the viability at 48 h, 50 µM was 112 ± 30%; the viability at 48 h, 100 µM worked out at 107 ± 30%. Also, in “in vitro”, the viability at 48 h, 200 µM turned out to be 110 ± 33%; the viability at 48 h, 500 µM was found to be 110 ± 28%; the viability at 48 h, 1000 µM is 105 ± 10%; the viability at 48 h, 2000 µM was determined as 53 ± 5%. The viability at 48 h, 5000 µM in the data set “in vitro” was determined as 39 ± 5%. In addition, the “Optimal non-toxic concentration (PBMC viability not below 100% at 0.05 significance level and higher than 90%)” value with PBMCs (male, human) came out at 1000 µM.

On to `O=[N+]([O-])c1cc(OCC(O)CN2CCN(CCO)CC2)ccc1Cl` (centres unmarked) [Compound 5, 1-(4-(2-Hydroxyethyl)piperazin-1-yl)-3-(4-chloro-3-nitrophenoxy)propan-2-ol], for which the viability at 48 h, 100 µM in data set [1] is 109 ± 9%. In the data set “in vitro”, the viability at 48 h, 10 µM stood at 121 ± 25%; the viability at 48 h, 20 µM worked out at 99 ± 8%; the viability at 48 h, 50 µM was found to be 111 ± 7%; the viability at 48 h, 100 µM came out at 102 ± 9%. In “in vitro”, the viability at 48 h, 200 µM is 107 ± 5%; the viability at 48 h, 500 µM turned out to be 79 ± 3%; the viability at 48 h, 1000 µM stood at 44 ± 11%. In addition, in the data set with PBMCs (male, human), the “Optimal non-toxic concentration (PBMC viability not below 100% at 0.05 significance level and higher than 90%)” value was found to be 200 µM.

`OCCN1CCN(CC(O)COc2cccc(Cl)c2)CC1` (centres unmarked) [Compound 6, 1-(4-(2-Hydroxyethyl)piperazin-1-yl)-3-(3-chlorophenoxy)propan-2-ol]: the viability at 48 h, 100 µM in data set [1] is 99 ± 11%. In addition, in the data set “in vitro”, the viability at 48 h, 10 µM was determined as 94 ± 12%; the viability at 48 h, 20 µM was 96 ± 5%; the viability at 48 h, 50 µM amounted to 99 ± 4%; the viability at 48 h, 100 µM turned out to be 99 ± 7%. In addition, in “in vitro”, the viability at 48 h, 200 µM was determined as 96 ± 6%; the viability at 48 h, 500 µM turned out to be 94 ± 7%; the viability at 48 h, 1000 µM worked out at 51 ± 4%. Further, in the data set with PBMCs (male, human), the “Optimal non-toxic concentration (PBMC viability not below 100% at 0.05 significance level and higher than 90%)” value is 500 µM.

As to `NCCCNCCS` [WR1065, reference compound], the viability at 48 h, 100 µM in data set [1] is 3%. For the same compound, in “in vitro”, the viability at 48 h, 10 µM came out at 57 ± 39%; the viability at 48 h, 20 µM is 47 ± 34%; the viability at 48 h, 50 µM was found to be 19 ± 17%; the viability at 48 h, 100 µM worked out at 16 ± 14%. Further, in the data set “in vitro”, the viability at 48 h, 200 µM was 21 ± 8% and the viability at 48 h, 500 µM turned out to be 27 ± 9%. Besides, the “Decrease in cell viability of PBMCs” value with PBMCs (10 μM (lowest tested concentration)) is 43%. Also, in data set [2] (setting [3]), the viability at 2 h, 100 µM turned out to be 64%. Also, the viability at 24 h, 200 µM in data set [2] was 18%.

As for `NCCCNCCSP(=O)(O)O` [WR2721, amifostine, reference compound], in data set [1], the viability at 48 h, 100 µM was 5%. Moreover, in the data set “in vitro” (setting [4]), the viability at 48 h, 10 µM came to 93 ± 17%; the viability at 48 h, 20 µM amounted to 75 ± 30%; the viability at 48 h, 50 µM came out at 37 ± 9%; the viability at 48 h, 100 µM came out at 33 ± 12%. In addition, in the data set “in vitro” (setting [4]), the viability at 48 h, 200 µM worked out at 35 ± 17% and the viability at 48 h, 500 µM was found to be 37 ± 20%. Moreover, the “Change of PBMC viability (in words)” value with PBMCs (20 μM) was “significant decrease”. Further, the “Optimal non-toxic concentration (PBMC viability not below 100% at 0.05 significance level and higher than 90%)” value in the data set on PBMCs (PBMCs, MTS) amounted to 10 µM. The viability at 24 h, 100 µM in data set [2] (setting [3]) was 83%. In addition, the viability at 24 h, 200 µM in data set [2] came out at 83%.
